Entries after “also recorded” stand apart in the source; their conditions may differ.
What was measured:
[1] = tested on: mutant gp120 (I423P) binding of F105 antibody; details: ref ([15], [48]); cited from earlier work
[2] = tested on: gp120 interaction with sCD4; details: read-out: IC50(SPR) sCD4, shown for comparison, ref ([19]) and ([30]); cited from earlier work
[3] = tested on: gp120 interaction with mAb 17b; details: read-out: IC50(SPR) mAb 17b, shown for comparison, ref ([19]) and ([30]); cited from earlier work
[4] = tested on: mutant gp120 (S375W); details: ref ([15]); cited from earlier work
[5] = target: S375A gp120 (Human immunodeficiency virus type 1 group M subtype B, UniProt P35961, S370A); assay type: binding, HIV-1; details: immobilized S375A gp120, SPR
[6] = target: S375A gp120 interaction with sCD4 (Human immunodeficiency virus type 1 group M subtype B, UniProt P35961, S370A); assay: SPR KR21/sCD4 competition over immobilized S375A gp120; assay type: binding, HIV-1; details: S375A versus WT

| Molecule | inhibition of F105 antibody binding to mutant gp120 (I423P) [1] | IC50 [2] | IC50 [3] | binding to gp120 with pocket-filling S375W mutation [4] | inhibition of sCD4 binding to mutant gp120 (S375W) [4] | direct binding to S375A gp120 [5] | reduction in sCD4 inhibitory potency, S375A compared to WT gp120 [6] |
| --- | --- | --- | --- | --- | --- | --- | --- |
| RINNIPWSEAMM [12p1] | inhibits | 1100 nM | 1600 nM | completely abrogated | does not inhibit; also recorded: resistant | – | – |
| CC[C@H](C)[C@H](NC(=O)[C@@H](N)CCCNC(=N)N)C(=O)N[C@@H](CC(N)=O)C(=O)N[C@@H](CC(N)=O)C(=O)N[C@H](C(=O)N1C[C@@H](n2cc([C]34[CH]5[CH]6[CH]7[CH]3[Fe]6754389%10[CH]4[CH]3[CH]8[CH]9[CH]4%10)nn2)C[C@H]1C(=O)N[C@@H](Cc1c[nH]c2ccccc12)C(=O)NCCC(=O)N[C@@H](CCCCNC(=O)CCCC[C@@H]1SC[C@@H]2NC(=O)N[C@@H]21)C(=O)NCC(N)=O)[C@@H](C)CC (stereo partly drawn) [KR21, R^1-I^2-N^3-N^4-I^5-X^6-W^7-βA^8-BtLys^9-G^10] | – | 85 nM | 110 nM | – | – | severely disrupted; also recorded: could not be fitted | 20 fold |

Reference: PMC3800186 (Biochemistry, 2013)
